The results in this text go back to ChEMBL document CHEMBL1201862, “PubChem BioAssay data set” (2004).

Common to all, as to experiment: NCI tumour cell line growth inhibition, 48 h
Experiment [1] deals with HT-29.
Experiment [2] deals with IGROV-1.
Experiment [3] relates to NCI-H460.
In experiment [4] the test system is NCI-H522.
The subject of experiment [5] is PC-3.
Experiment [6] relates to UACC-257.
The subject of experiment [7] is KM12.
Experiment [8] relates to K562.
Experiment [9] deals with MDA-N.
In experiment [10] the test system is RXF 393.
Experiment [11] concerns SK-OV-3.
Experiment [12] has as its system SR.
The test system of experiment [13] is A498.
The subject of experiment [14] is OVCAR-5.
The test system of experiment [15] is UO-31.
For experiment [16], the system named is HOP-62.
The test system of experiment [17] is OVCAR-8.
For experiment [18], the system named is SK-MEL-2.
For experiment [19], the system named is RPMI-8226.

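Cells were grown in 96-well plates and exposed to each compound for 48 hours at five concentrations; endpoints were interpolated linearly between bracketing concentrations, or set to the highest concentration if not reached. Here, GI50 denotes the concentration required for 50% inhibition of growth.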 Calls of active or inactive are those of the source. Cut-off read from the data, not from the text of the source: active = GI50 up to about 1.1 µM and inactive = higher. A value given as a limit tells only on which side of the number the result lay.

As to `Nc1ccc(-c2ccc(Nc3cc(S(=O)(=O)O)c(N)c4c3C(=O)c3ccccc3C4=O)cc2)c(S(=O)(=O)O)c1`, the GI50 in experiment [1], in experiment [2], in experiment [3], in experiment [4], in experiment [5] and in experiment [6] was > 100 µM (inactive) throughout. Also, the GI50 in experiment [7], in experiment [8], in [9], in experiment [10], in [11] and in [12] was > 100 µM (inactive) each time. Also, the GI50 in [13], in experiment [14], in experiment [15], in experiment [16], in experiment [17] and in [18] was > 100 µM (inactive) each time. Moreover, the GI50 in experiment [19] was > 100 µM (inactive).
`c1cncc(CNCc2cccnc2)c1`: the GI50 in experiment [1], in experiment [2], in experiment [3], in [4], in [5] and in experiment [6] was > 100 µM (inactive) each time. Further, the GI50 in experiment [7], in [8], in experiment [9], in experiment [10], in experiment [11] and in [12] was > 100 µM (inactive) in each case. Also, the GI50 in [13], in experiment [14], in experiment [15], in experiment [16], in experiment [17] and in [18] was > 100 µM (inactive) in each case. Also, the GI50 in [19] is > 100 µM (inactive).
Consider `CC(C)(C)C(=O)C(C#N)C(=O)C(C)(C)C`, for which the GI50 in [1], in experiment [2], in [3], in experiment [4], in experiment [5] and in experiment [6] was > 100 µM (inactive) in each case. Also, the GI50 was > 100 µM (inactive) in experiment [7]; > 100 µM (inactive) in [8]; > 100 µM (inactive) in experiment [9]; > 100 µM (inactive) in experiment [10]; > 100 µM (inactive) in [11]; 0.0697 µM (active) in experiment [12]. Besides, the GI50 in experiment [13], in experiment [14], in [15], in experiment [16], in experiment [17] and in experiment [18] was > 100 µM (inactive) each time. Moreover, in experiment [19], the GI50 was > 100 µM (inactive).
Consider `CCCCCCCC(=O)OC[n+]1ccc(-c2c(COC(=O)NC(C)C)c(COC(=O)NC(C)C)c3n2CCC3)cc1`, for which the GI50 in experiment [1] is 42.6 µM (inactive); in experiment [2] it was 31 µM (inactive); in experiment [3], 21.4 µM (inactive); in experiment [4], 26.4 µM (inactive); in [5] it was > 65.2 µM (inactive); in experiment [6], 70.6 µM (inactive). In addition, the GI50 was > 100 µM (inactive) in experiment [7]; 34.4 µM (inactive) in experiment [8]; > 94.8 µM (inactive) in experiment [9]; 21.1 µM (inactive) in [10]; 63.1 µM (inactive) in experiment [11]; 5.65 µM (inactive) in experiment [12]. Moreover, the GI50 in experiment [13] is 29.9 µM (inactive); in experiment [14], > 96.6 µM (inactive); in [15] it was 42.4 µM (inactive); in experiment [16] it was 56.6 µM (inactive); in experiment [17], 43.1 µM (inactive); in [18], 22.1 µM (inactive). Besides, the GI50 in experiment [19] was 22.1 µM (inactive).
Take `O=C1Cc2c(-c3ccc(Cl)cc3)cc(-c3ccccc3)nc2-c2ccccc2N1`: the GI50 in experiment [1] is 4.5 µM (inactive); in experiment [2], 6.95 µM (inactive); in experiment [3], 2.1 µM (inactive); in experiment [4] it was 8.38 µM (inactive); in [5], 19.4 µM (inactive); in experiment [6] it was 25.4 µM (inactive). Besides, the GI50 in [7] was 9.25 µM (inactive); in experiment [8], 15.1 µM (inactive); in [9], 9.35 µM (inactive); in experiment [10], 4.81 µM (inactive); in experiment [11], 4.46 µM (inactive); in [12] it was 7.13 µM (inactive). The GI50 in experiment [13] is 2.07 µM (inactive); in experiment [14] it was 16.2 µM (inactive); in [15], 4.34 µM (inactive); in experiment [16], 8.24 µM (inactive); in [17], 2.76 µM (inactive); in experiment [18], 26.6 µM (inactive). Moreover, the GI50 in experiment [19] is 9.25 µM (inactive).
On to `CCc1nn(CN2CCN(C)CC2)c(=S)n1/N=C\c1ccc(-c2ccc([N+](=O)[O-])cc2)o1`, for which the GI50 in [1] is > 100 µM (inactive); in [2], 89.9 µM (inactive); in experiment [3] it was 57.4 µM (inactive); in experiment [4], 51.5 µM (inactive); in experiment [5], 54.3 µM (inactive); in experiment [6], 57.7 µM (inactive). In addition, the GI50 was > 100 µM (inactive) in experiment [7]; 40 µM (inactive) in [8]; 94 µM (inactive) in [9]; 26.8 µM (inactive) in experiment [10]; 40.7 µM (inactive) in experiment [11]; 64.1 µM (inactive) in experiment [12]. The GI50 in experiment [13] is 26 µM (inactive); in experiment [14], > 100 µM (inactive); in experiment [15] it was 56.6 µM (inactive); in experiment [16], 28.4 µM (inactive); in [17], 35.5 µM (inactive); in experiment [18] it was 74.3 µM (inactive). In addition, the GI50 in experiment [19] is 39.5 µM (inactive).
Regarding `CC[S+]([O-])c1c2cc(OC)ccc2nc2ccc(OC)cc12` (configuration not stated), the GI50 in [1] is 4.09 µM (inactive); in experiment [2], 4.94 µM (inactive); in experiment [3], 29.5 µM (inactive); in experiment [4], 1.83 µM (inactive); in experiment [5], 10.7 µM (inactive); in experiment [6], 5.45 µM (inactive). In addition, the GI50 in [7] is 16.2 µM (inactive); in experiment [8], 2.42 µM (inactive); in [9] it was 4.71 µM (inactive); in experiment [10], 4.71 µM (inactive); in [11] it was 24.1 µM (inactive); in experiment [12], 3.51 µM (inactive). In addition, the GI50 in [13] was 17.3 µM (inactive); in experiment [14] it was 17.8 µM (inactive); in experiment [15], 4.82 µM (inactive); in experiment [16] it was 21.5 µM (inactive); in experiment [17], 5.55 µM (inactive); in [18], 17.5 µM (inactive). Also, the GI50 in experiment [19] was 3.45 µM (inactive).
In the case of `CC12CC(=O)Nc3ccccc3N1C(c1ccccc1)=NO2` (configuration not stated), the GI50 in experiment [1], in experiment [2], in [3], in experiment [4], in experiment [5] and in experiment [6] was > 100 µM (inactive) throughout. Further, the GI50 in experiment [7], in [8], in [9], in [10], in experiment [11] and in [12] was > 100 µM (inactive) throughout. Moreover, the GI50 in [13], in experiment [14], in experiment [15], in [16], in experiment [17] and in experiment [18] was > 100 µM (inactive) throughout. Further, in experiment [19], the GI50 is > 100 µM (inactive).
